# Key:
# [1] = tested on: patients with newly diagnosed, previously untreated AML; test: Phase 1 dose-escalation study of alvocidib followed by cytarabine/daunorubicin (7+3): response assessment by ELN Guidelines; format: in vivo, human
# Procedure: Methods: Study Population. This was a Phase 1, open-label, multicenter, dose-escalation study of alvocidib followed by cytarabine/daunorubicin (7+3) in patients with AML (NCT03298984). Patients aged 18-65 years with newly diagnosed, previously untreated AML and pathological confirmation of bone marrow (BM) blasts ≥20% were eligible. Key inclusion criteria included: Eastern Cooperative Oncology Group (ECOG) performance status (PS) ≤2, serum creatinine level ≤1.8 mg/dL, alanine aminotransferase (ALT) and aspartate aminotransferase (AST) ≤5 times upper limit of normal (ULN), total bilirubin ≤2.0 mg/dL, and left ventricular ejection fraction (EF) >45%. Patients were excluded if they had previous treatment for AML (with the exception of hydroxyurea), and were diagnosed with acute promyelocytic leukemia (APL-M3) or core-binding factor AML ((CBF-AML: t(8;21); inv(16); t(16;16)). All patients provided written informed consent. This study was conducted as per the Declaration of Helsinki after approval by ethics committee of each participating center.
# Treatment Plan: Induction.
# Consolidation. Patients who achieved a complete remission (CR) received 2 to 4 cycles of consolidation therapy with high dose cytarabine (HiDAC) 3 gm/m^2 IV every 12 hours on days 1, 3 and 5 upon full hematological recovery (absolute neutrophil count >1×10^−3/L and platelets >1×10^1/L). HiDAC was permitted to be dose reduced to 1.5 gm/m^2 IV every 12 hours on days 1, 3 and 5 in those >60 years. Allogeneic stem cell transplantation was permitted after induction per standard of care but was recommended after at least 1 cycle of HiDAC consolidation in those who achieved CR.
# Response Assessments. Response assessment was performed by a bone marrow aspirate and biopsy at the time of full hematologic recovery or by day 50 and day 60 of 1 versus 2 induction cycles, respectively. Response to therapy was assessed by standardized ELN Guidelines. In those who achieved CR and received consolidation therapy, a bone marrow aspirate and biopsy was performed after cycle 2 of HiDAC, after completion of consolidation therapy, and at any suspicion of relapse.
# (§1) Statistical Analysis. […] Intra-patient dose escalation was not permitted. […] Database lock was on Apr. 30, 2020.
# [2] = tested on: patients with newly diagnosed, previously untreated AML; test: Minimal residual disease (MRD) analysis of bone marrow by flow cytometry in the Phase 1 study; format: in vivo, human
# Procedure: Minimal Residual Disease (MRD) Analysis. MRD was assessed in bone marrow samples at the time of response by a uniform central assay (Hematologics, Inc.) in an exploratory cohort, as has been previously described. Samples were first incubated with antibodies for 20 minutes at room temperature. Red blood cells were then lysed at 37° C. using buffered NH4Cl for 5 minutes, followed by centrifugation at 300 g. Cells were subsequently washed with PBS supplemented with 2% FCS and resuspended in 1% paraformaldehyde. Samples were analyzed on a FACSCalibur™ flow cytometer (Becton Dickinson Biosciences). 200,000 events were analyzed for each sample. Data analysis was performed with WinList™ software (Verity Software House). Two independent reviewers viewed each sample to arrive at a consensus on the data.
# [3] = tested on: patients with newly diagnosed, previously untreated AML; test: Kaplan-Meier time-to-event analyses and clinical outcomes (OS, EFS, RFS, relapse) in the Phase 1 study; format: in vivo, human
# Source text: as §1
# [4] = tested on: patients with newly diagnosed, previously untreated AML
# Procedure: Treatment Plan: Induction. Alvocidib was dose-escalated starting at dose level 1: 20 mg/m^2 30-minute IV bolus followed by 30 mg/m^2 IV infusion over 4 hours on Days 1-3 (FIG. 1). Daunorubicin 60 mg/m^2 IV bolus over 15 minutes was initiated on days 5-7, and cytarabine 100 mg/m^2/day IV continuous 24-hour infusion was administered on Days 5-11. A bone marrow aspirate and biopsy was performed on day 14 (+/−3 days) and patients with residual leukemia (>5% bone marrow blasts and >10% cellularity) were recommended to receive a second induction cycle with alvocidib on days 1-3 (same dose level as induction) followed by daunorubicin 45 mg/m^2/day IV over 15 minutes on days 5 and 6 and cytarabine 100 mg/m^2/day IV continuous infusion over days 5-9 (“5+2”).
# Statistical Analysis. Alvocidib dose was escalated using a 3+3 design (FIG. 1). Successive cohorts of patients (3-6 per cohort) were treated with escalated doses until the maximal tolerated dose (MTD) was established. Intra-patient dose escalation was not permitted. Descriptive analysis was performed for the safety and efficacy endpoints. MTD for alvocidib was estimated by the highest alvocidib dose for which the incidence of DLT during Cycle 1 was less than 33% in combination with 7+3. Kaplan-Meier time-to-event analyses were performed on overall survival (OS), relapse-free survival and duration of remission. […]
# MDS blasts = test: MCL-1 dependency assay of MDS blasts after azacitidine pre-treatment; format: cell-based, human; details: patient sample MDS1060; MCL-1 dependency cut-off of 40%
# Procedure: CD13, CD33, CD34, CD45, CD3 and CD20 were used as markers to identify MDS blasts, and to perform MCL-1 dependency analyses. MDS blasts were positive for CD13, CD33 and CD34, dim for CD45 and negative for CD3 and CD20.
# On day 1 of the MCL-1 dependency assay, 5×10^4-1×10^5 HS-5 feeder cells were plated into a 6-well plate, and allowed to attached overnight. HS-5 feeder cells improve viability of frozen MDS bone marrow mononuclear cells (BMMCs) after thawing. On day 2 of the assay, MDS BMMCs were thawed, and divided into three treatment groups corresponding to treatment with DMSO, treatment with 1 μM azacitidine or treatment with 2.5 μM azacitidine. On day 4, after a 48-hour treatment period, MCL-1 dependency of MDS blasts, lymphocytes and monocytes were separately assessed.
# [5] = tested on: MCL-1 protein levels in blasts; details: cited from earlier work
Structure (SMILES),"differences in response to alvocidib in patients with or without MCL-1 dependence ([1]; MCL-1 dependence threshold priming >30%, exploratory analysis)","patients who received re-induction for residual leukemia on day 14 ([1]; all enrolled, 3 patients, re-induction with alvocidib and 5+2)",CR rate ([1]; genomic class AML with NPM1 mutation (8/10)),CR among patients who received re-induction therapy ([1]; re-induction with alvocidib and 5+2),"MRD-negative among CR patients with ELN adverse-risk disease ([2]; 4/9, flow cytometry and/or institutional standard assessment)","MRD-negative CR in ELN adverse-risk patients ([2]; exploratory cohort, 3 out of 4)",patients who achieved CR without MRD and remain in CR ([3]; 9 patients),"median OS ([3]; 32 patients, median follow-up 9.2 months)","duration of CR, range ([3]; CR patients relapsed to date)","CR patients relapsed to date ([3]; of the 22 CR patients, 7 patients)",median RFS ([3]; time from CR/CRi up to disease relapse or death),patients who achieved CR without evidence of MRD and relapsed ([3]; two patients),"MTD (alvocidib dose) ([4]; IV bolus/IV infusion on Days 1-3, in combination with 7+3)",safety and feasibility of alvocidib administration prior to 7+3 induction ([4]; in vivo),change of MCL-1 dependency status of blasts (MDS blasts),effect on MCL-1 protein levels in blasts [5]
"CN1CC[C@H](c2c(O)cc(O)c3c(=O)cc(-c4ccccc4Cl)oc23)[C@H](O)C1 [alvocidib, 2-(2-chlorophenyl)-5,7-dihydroxy-8-[(3S,4R)-3-hydroxy-1-methylpiperidin-4-yl]chromen-4-one]",No significant differences,9%,80%,None,44%,75%,82%,not reached,1.4-13.6 months,32%,not reached,18%,(30/60 mg/m^2),"safe, feasible",,
Nc1ncn([C@@H]2O[C@H](CO)[C@@H](O)[C@H]2O)c(=O)n1 [azacitidine],,,,,,,,,,,,,,,rendered MCL-1-independent blasts MCL-1 dependent,reduce MCL-1 protein levels in blasts
